Where only a bound is given, the exact number is not on record here.

This test deals with ATF4 luciferase reporter in HEK293T cells. Description: ATF4-Luc assay (ATF4 luciferase reporter, tunicamycin-treated HEK293T cells). The class given is cell-based, human. The following applies: Homo sapiens, HEK-293T; HEK293T cells carrying the ATF4 luciferase reporter, 1 μg/mL tunicamycin, 7 hours.
As usually defined, the EC50 is the concentration needed to bring the measured effect to its halfway point. `Cc1ccccc1CS(=O)(=O)NC12CC(NC(=O)COc3ccc(Cl)c(F)c3)(C1)C2` [Compound 482, 2-(4-chloro-3-fluorophenoxy)-N-(3-{[(2-methylphenyl)methanesulfonyl]amino}bicyclo[1.1.1]pentan-1-yl)acetamide]: the EC50 was greater than 2000 nM.
For `O=C(COc1ccc(Cl)c(F)c1)NC12CC(NS(=O)(=O)Cc3ccc(F)c(F)c3)(C1)C2` [Compound 483, 2-(4-chloro-3-fluorophenoxy)-N-(3-{[(3,4-difluorophenyl)methanesulfonyl]amino}bicyclo[1.1.1]pentan-1-yl)acetamide] the value was greater than 2000 nM; for `O=C(COc1ccc(Cl)c(F)c1)NC12CC(NS(=O)(=O)Cc3cc(F)cc(F)c3)(C1)C2` [Compound 484, 2-(4-chloro-3-fluorophenoxy)-N-(3-{[(3,5-difluorophenyl)methanesulfonyl]amino}bicyclo[1.1.1]pentan-1-yl)acetamide], greater than 2000 nM; for `O=C(COc1ccc(Cl)c(F)c1)NC12CC(NS(=O)(=O)CCOc3ccccc3F)(C1)C2` [Compound 485, 2-(4-chloro-3-fluorophenoxy)-N-(3-{[2-(2-fluorophenoxy)ethanesulfonyl]amino}bicyclo[1.1.1]pentan-1-yl)acetamide], 500 to 2000 nM.
For `Cc1cccc(CS(=O)(=O)NC23CC(NC(=O)COc4ccc(Cl)c(F)c4)(C2)C3)c1` [Compound 486, 2-(4-chloro-3-fluorophenoxy)-N-(3-{[(3-methylphenyl)methanesulfonyl]amino}bicyclo[1.1.1]pentan-1-yl)acetamide] the value was greater than 2000 nM; for `O=C(COc1ccc(Cl)c(F)c1)NC12CC(NS(=O)(=O)Cc3ccc(F)cc3)(C1)C2` [Compound 487, 2-(4-chloro-3-fluorophenoxy)-N-(3-{[(4-fluorophenyl)methanesulfonyl]amino}bicyclo[1.1.1]pentan-1-yl)acetamide], greater than 2000 nM; for `O=C(COc1ccc(Cl)c(F)c1)NC12CC(NS(=O)(=O)CCOc3ccccc3)(C1)C2` [Compound 488, 2-(4-chloro-3-fluorophenoxy)-N-{3-[(2-phenoxyethanesulfonyl)amino]bicyclo[1.1.1]pentan-1-yl}acetamide], greater than 2000 nM.
Then `O=C(COc1ccc(Cl)c(F)c1)NC12CC(NS(=O)(=O)CCOc3ccc(F)cc3)(C1)C2` [Compound 489, 2-(4-chloro-3-fluorophenoxy)-N-(3-{[2-(4-fluorophenoxy)ethanesulfonyl]amino}bicyclo[1.1.1]pentan-1-yl)acetamide], with 500 to 2000 nM; and `N#Cc1ccc(CS(=O)(=O)NC23CC(NC(=O)COc4ccc(Cl)c(F)c4)(C2)C3)cc1` [Compound 490, 2-(4-chloro-3-fluorophenoxy)-N-(3-{[(4-cyanophenyl)methanesulfonyl]amino}bicyclo[1.1.1]pentan-1-yl)acetamide], with 500 to 2000 nM.
Turning to `O=C(COc1ccc(Cl)c(F)c1)NC12CC(NC(=O)Cc3cc(F)cc(F)c3)(C1)C2` [Compound 491, 2-(4-chloro-3-fluorophenoxy)-N-{3-[2-(3,5-difluorophenyl)acetamido]bicyclo[1.1.1]pentan-1-yl}acetamide], the EC50 was greater than 2000 nM.
Then `O=C(CNC(=O)c1ccccc1)NC12CC(NC(=O)COc3ccc(Cl)c(F)c3)(C1)C2` [Compound 492, N-[2-({3-[2-(4-chloro-3-fluorophenoxy)acetamido]bicyclo[1.1.1]pentan-1-yl}amino)-2-oxoethyl]benzamide], with greater than 2000 nM; and `Cc1ncnc(C)c1OCC(=O)NC12CCC(NC(=O)COc3ccc(Cl)c(F)c3)(CC1)C[C@@H]2O` [Compound 493, 2-(4-chloro-3-fluorophenoxy)-N-[(3S)-4-{2-[(4,6-dimethylpyrimidin-5-yl)oxy]acetamido}-3-hydroxybicyclo[2.2.2]octan-1-yl]acetamide], with greater than 2000 nM; and `CCc1cc(C)cc(OCC(=O)NC23CCC(NC(=O)COc4ccc(Cl)c(F)c4)(CC2)C[C@@H]3O)c1` [Compound 494, 2-(4-chloro-3-fluorophenoxy)-N-{(3S)-4-[2-(3-ethyl-5-methylphenoxy)acetamido]-3-hydroxybicyclo[2.2.2]octan-1-yl}acetamide], with 250 to 500 nM.
Turning to `O=C(COc1ccc(Cl)c(F)c1)NC12CCC(NC(=O)COc3cccnc3)(CC1)[C@@H](O)C2` [Compound 495, 2-(4-chloro-3-fluorophenoxy)-N-[(3S)-3-hydroxy-4-{2-[(pyridin-3-yl)oxy]acetamido}bicyclo[2.2.2]octan-1-yl]acetamide], the EC50 is 10 to 50 nM.
For `CC(C)c1cc(OCC(=O)NC23CCC(NC(=O)COc4ccc(Cl)c(F)c4)(CC2)C[C@@H]3O)cc(C(C)C)c1` [Compound 496, 2-(4-chloro-3-fluorophenoxy)-N-[(3S)-4-{2-[3,5-di(propan-2-yl)phenoxy]acetamido}-3-hydroxybicyclo[2.2.2]octan-1-yl]acetamide] the value was 500 to 2000 nM; for `COc1cc(OCC(=O)NC23CCC(NC(=O)COc4ccc(Cl)c(F)c4)(CC2)C[C@@H]3O)nc(SC)n1` [Compound 497, 2-(4-chloro-3-fluorophenoxy)-N-[(3S)-3-hydroxy-4-(2-{[6-methoxy-2-(methylsulfanyl)pyrimidin-4-yl]oxy}acetamido)bicyclo[2.2.2]octan-1-yl]acetamide], 500 to 2000 nM.
For `COc1cc(OC)nc(OCC(=O)NC23CCC(NC(=O)COc4ccc(Cl)c(F)c4)(CC2)C[C@@H]3O)n1` [Compound 498, 2-(4-chloro-3-fluorophenoxy)-N-[(3S)-4-{2-[(4,6-dimethoxypyrimidin-2-yl)oxy]acetamido}-3-hydroxybicyclo[2.2.2]octan-1-yl]acetamide] the value was 250 to 500 nM; for `Cc1ncc2c(c1OCC(=O)NC13CCC(NC(=O)COc4ccc(Cl)c(F)c4)(CC1)C[C@@H]3O)COC2` [Compound 499, 2-(4-chloro-3-fluorophenoxy)-N-[(3S)-3-hydroxy-4-{2-[(6-methyl-1,3-dihydrofuro[3,4-c]pyridin-7-yl)oxy]acetamido}bicyclo[2.2.2]octan-1-yl]acetamide], greater than 2000 nM; for `O=C(COc1ccc(Cl)c(F)c1)NC12CCC(NC(=O)COc3cccc(C(F)(F)F)c3)(CC1)[C@@H](O)C2` [Compound 501, 2-(4-chloro-3-fluorophenoxy)-N-[(3S)-3-hydroxy-4-{2-[3-(trifluoromethyl)phenoxy]acetamido}bicyclo[2.2.2]octan-1-yl]acetamide], less than 10 nM.
For `Cc1cc(C)cc(OCC(=O)NC23CCC(NC(=O)COc4ccc(Cl)c(F)c4)(CC2)C[C@@H]3O)c1` [Compound 502, 2-(4-chloro-3-fluorophenoxy)-N-{(3S)-4-[2-(3,5-dimethylphenoxy)acetamido]-3-hydroxybicyclo[2.2.2]octan-1-yl}acetamide] the value was 50 to 250 nM; for `Cc1cc(OCC(=O)NC23CCC(NC(=O)COc4ccc(Cl)c(F)c4)(CC2)C[C@@H]3O)cc(C)c1C` [Compound 503, 2-(4-chloro-3-fluorophenoxy)-N-{(3S)-3-hydroxy-4-[2-(3,4,5-trimethylphenoxy)acetamido]bicyclo[2.2.2]octan-1-yl]acetamide], 10 to 50 nM; for `CS(=O)(=O)c1ccc(OCC(=O)NC23CCC(NC(=O)COc4ccc(Cl)c(F)c4)(CC2)C[C@@H]3O)cc1` [Compound 504, 2-(4-chloro-3-fluorophenoxy)-N-[(3S)-3-hydroxy-4-{2-[4-(methanesulfonyl)phenoxy]acetamido}bicyclo[2.2.2]octan-1-yl] acetamide], 50 to 250 nM.
As for `O=C(COc1ccc(Cl)c(F)c1)NC12CCC(NC(=O)COc3ccc(OC(F)(F)F)cc3)(CC1)[C@@H](O)C2` [Compound 505, 2-(4-chloro-3-fluorophenoxy)-N-[(3S)-3-hydroxy-4-{2-[4-(trifluoromethoxy)phenoxy]acetamido}bicyclo[2.2.2]octan-1-yl] acetamide], the EC50 was less than 10 nM.
Then `CC(C)(C)c1ccc(OCC(=O)NC23CCC(NC(=O)COc4ccc(Cl)c(F)c4)(CC2)C[C@@H]3O)cc1` [Compound 506, 2-(4-tert-butylphenoxy)-N-{(2S)-4-[2-(4-chloro-3-fluorophenoxy)acetamido]-2-hydroxybicyclo[2.2.2]octan-1-yl}acetamide], with 250 to 500 nM; and `O=C(COc1ccc(Cl)c(F)c1)NC12CCC(NC(=O)COc3ccc(C(F)(F)F)cc3)(CC1)[C@@H](O)C2` [Compound 507, 2-(4-chloro-3-fluorophenoxy)-N-[(3S)-3-hydroxy-4-{2-[4-(trifluoromethyl)phenoxy]acetamido}bicyclo[2.2.2]octan-1-yl]acetamide], with less than 10 nM; and `CCOc1ccc(OCC(=O)NC23CCC(NC(=O)COc4ccc(Cl)c(F)c4)(CC2)C[C@@H]3O)cc1` [Compound 508, 2-(4-chloro-3-fluorophenoxy)-N-{(3S)-4-[2-(4-ethoxyphenoxy)acetamido]-3-hydroxybicyclo[2.2.2]octan-1-yl}acetamide], with 10 to 50 nM.
With `Cc1cccc(OCC(=O)NC23CCC(NC(=O)COc4ccc(Cl)c(F)c4)(CC2)C[C@@H]3O)c1` [Compound 509, 2-(4-chloro-3-fluorophenoxy)-N-{(3S)-3-hydroxy-4-[2-(3-methylphenoxy)acetamido]bicyclo[2.2.2]octan-1-yl}acetamide], the EC50 was less than 10 nM.
For `Cc1ccc(OCC(=O)NC23CCC(NC(=O)COc4ccc(Cl)c(F)c4)(CC2)C[C@@H]3O)cc1C` [Compound 510, 2-(4-chloro-3-fluorophenoxy)-N-{(3S)-4-[2-(3,4-dimethylphenoxy)acetamido]-3-hydroxybicyclo[2.2.2]octan-1-yl}acetamide] the value was less than 10 nM; for `CC(=O)c1ccc(OCC(=O)NC23CCC(NC(=O)COc4ccc(Cl)c(F)c4)(CC2)C[C@@H]3O)cc1` [Compound 511, 2-(4-acetylphenoxy)-N-{(2S)-4-[2-(4-chloro-3-fluorophenoxy)acetamido]-2-hydroxybicyclo[2.2.2]octan-1-yl}acetamide], 10 to 50 nM.
As to `O=C(COc1ccc(Cl)c(F)c1)NC12CCC(NC(=O)COc3nc4ccccc4s3)(CC1)[C@@H](O)C2` [Compound 512, 2-[(1,3-benzothiazol-2-yl)oxy]-N-{(2S)-4-[2-(4-chloro-3-fluorophenoxy)acetamido]-2-hydroxybicyclo[2.2.2]octan-1-yl}acetamide], the EC50 is greater than 2000 nM.

These data come from patent publication US20240166652A1, “MODULATORS OF THE INTEGRATED STRESS PATHWAY” (Calico Life Sciences LLC, priority 2017, published 2024).
